Target: T1, CYP11A1 (Homo sapiens, UniProt P05108)
T1 construct: endogenous in cells; host or cells: NCI-H295R
T1 sequence (P05108 40-521): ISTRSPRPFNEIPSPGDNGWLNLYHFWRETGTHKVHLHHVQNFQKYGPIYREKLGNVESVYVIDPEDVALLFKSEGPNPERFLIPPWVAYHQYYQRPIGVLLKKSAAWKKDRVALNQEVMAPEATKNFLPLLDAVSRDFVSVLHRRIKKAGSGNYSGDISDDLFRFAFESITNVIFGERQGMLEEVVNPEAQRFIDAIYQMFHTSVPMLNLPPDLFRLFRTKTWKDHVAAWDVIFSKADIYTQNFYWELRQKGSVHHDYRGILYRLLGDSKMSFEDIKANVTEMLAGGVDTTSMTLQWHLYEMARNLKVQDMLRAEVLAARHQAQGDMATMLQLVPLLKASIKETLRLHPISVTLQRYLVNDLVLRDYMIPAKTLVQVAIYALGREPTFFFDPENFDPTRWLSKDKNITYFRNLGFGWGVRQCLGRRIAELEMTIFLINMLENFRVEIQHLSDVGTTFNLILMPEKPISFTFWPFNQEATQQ
Test: CYP11A1 inhibition: pregnenolone biosynthesis measured by ELISA in NCI-H295R cells
Type: cell-based
Conditions: NCI-H295R cells treated for 24 hours, 10 concentrations in duplicates, read-out: IC50 on CYP11A1 inhibition (Group)
Procedure: The ability of the test compounds to inhibit pregnenolone biosynthesis was measured by enzyme-linked immunosorbent assay (ELISA) detecting pregnenolone (Abnova Pregnenolone ELISA Kit, KA1912). […] To determine the half maximal inhibitory concentration (IC50) of the test compounds on CYP11A1 inhibition, the cells were treated for 24 hours with increasing concentrations of the test compound. The final DMSO concentration was 0.4%. Medium samples were diluted 1:6 and pregnenolone amounts determined with ELISA. Manufacturer's recommended protocols were used and pregnenolone (Sigma-Aldrich, P9129) standards were prepared in cell culture medium. Absorbance (A450) was measured with Envision plate reader (PerkinElmer). All the test compounds were studied at 10 concentrations in duplicates.

Row | IC50 | Structure (SMILES)
1 | 0.201 to 2.5 µM | COc1cccc2c1CCCN2C(=O)c1cncc(-c2ccccc2)c1 [Compound 59, (5-Methoxy-3,4-dihydroquinolin-1(2H)-yl)(5-phenylpyridin-3-yl)methanone]
2 | 0.201 to 2.5 µM | O=C(c1cncc(-c2ccccc2)c1)N1CCCc2ncccc21 [Compound 61, (3,4-Dihydro-1,5-naphthyridin-1(2H)-yl)(5-phenylpyridin-3-yl)methanone]
3 | 0.201 to 2.5 µM | O=C(c1cncc(-c2ccncc2)c1)N1CCCc2ccccc21 [Compound 62, [3,4′-Bipyridin]-5-yl(3,4-dihydroquinolin-1(2H)-yl)methanone]
4 | 0.201 to 2.5 µM | O=C(c1cncc(-c2ccc(CO)cc2)c1)N1CCOc2ccccc21 [Compound 65, (2,3-Dihydro-4H-benzo[b][1,4]oxazin-4-yl)(5-(4-(hydroxymethyl)phenyl)pyridin-3-yl)methanone]
5 | 0.201 to 2.5 µM | O=C(c1cncc(C2=CCOCC2)c1)N1CCOc2ccccc21 [Compound 66, (5-(3,6-Dihydro-2H-pyran-4-yl)pyridin-3-yl)(2,3-dihydro-4H-benzo[b][1,4]-oxazin-4-yl)methanone]
6 | 0.201 to 2.5 µM | CN(C)Cc1ccc(-c2cncc(C(=O)N3CCCc4ccccc43)c2)cc1 [Compound 68, (3,4-Dihydroquinolin-1(2H)-yl)(5-(4-((dimethylamino)methyl)phenyl)pyridin-3-yl)methanone]
7 | 0.201 to 2.5 µM | COc1ccc2c(c1)N(C(=O)c1cncc(-c3ccccc3)c1)CCC2 [Compound 69, (7-Methoxy-3,4-dihydroquinolin-1(2H)-yl)(5-phenylpyridin-3-yl)methanone]
8 | 0.201 to 2.5 µM | Cc1ccc(-c2cncc(C(=O)N3CCOc4ccccc43)c2)cc1 [Compound 71, (2,3-Dihydro-4H-benzo[b][1,4]oxazin-4-yl)(5-(p-tolyl)pyridin-3-yl)methanone]
9 | 0.201 to 2.5 µM | O=C(c1cncc(-c2ccc3c(c2)OCC3)c1)N1CCOC2CCCCC21 (stereo not shown) [Compound 72, (5-(2,3-Dihydrobenzofuran-6-yl)pyridin-3-yl)(octahydro-4H-benzo[b][1,4]-oxazin-4-yl)methanone]
10 | 0.201 to 2.5 µM | CC1(C)C2CN(c3cncc(C(=O)N4CCOc5ccccc54)c3)CC21 (stereo not shown) [Compound 75]
11 | 0.201 to 2.5 µM | O=C(c1cncc(N2CCCC2)n1)N1CCOc2ccccc21 [Compound 76, (2,3-dihydro-4H-benzo[b][1,4]oxazin-4-yl)(6-(pyrrolidin-1-yl)pyrazin-2-yl)-methanone]
12 | 0.201 to 2.5 µM | CN1CCN(c2cncc(C(=O)N3CCOc4ccccc43)n2)CC1 [Compound 78, (2,3-Dihydro-4H-benzo[b][1,4]oxazin-4-yl)(6-(4-methylpiperazin-1-yl)pyrazin-2-yl)methanone]
13 | 0.201 to 2.5 µM | c1ccc(-c2cncc(CN3CCOc4ccccc43)c2)cc1 [Compound 81, 4-((5-Phenylpyridin-3-yl)methyl)-3,4-dihydro-2H-benzo[b][1,4]oxazine]
14 | 0.201 to 2.5 µM | Cc1cn(-c2cncc(C(=O)N3CCCc4ccccc43)c2)cn1 [Compound 82, (3,4-Dihydroquinolin-1(2H)-yl)(5-(4-methyl-1H-imidazol-1-yl)pyridin-3-yl)-methanone]
15 | < 0.05 µM | Cc1cn(-c2cncc(C(=O)N3CCCc4ccccc43)n2)cn1 [Compound 83, (3,4-Dihydroquinolin-1(2H)-yl)(6-(4-methyl-1H-imidazol-1-yl)pyrazin-2-yl)-methanone]
16 | < 0.05 µM | Cc1cnn(-c2cncc(C(=O)N3CCCc4ccccc43)c2)c1 [Compound 88, (3,4-Dihydroquinolin-1(2H)-yl)(5-(4-methyl-1H-pyrazol-1-yl)pyridin-3-yl)-methanone]
17 | 0.051 to 0.2 µM | Fc1ccc(-c2cncc(CN3CCCc4ccccc43)c2)cc1 [Compound 89, 1-((5-(4-Fluorophenyl)pyridin-3-yl)methyl)-1,2,3,4-tetrahydroquinoline]
18 | 0.051 to 0.2 µM | Fc1ccc(-c2cncc(CN3CCc4ccccc43)c2)cc1 [Compound 90, 1-((5-(4-Fluorophenyl)pyridin-3-yl)methyl)indoline]
19 | 0.201 to 2.5 µM | Fc1ccc(-c2cncc(CN3CCOc4ccccc43)c2)cc1 [Compound 91]

Continued, molecule first:

Row | Structure (SMILES) | IC50
20 | O=C(c1cncc(-c2ccc(F)c([N+](=O)[O-])c2)c1)N1CCOc2ccccc21 [Compound 58, (2,3-Dihydro-4H-benzo[b][1,4]oxazin-4-yl)(5-(4-fluoro-3-nitrophenyl)pyridin-3-yl)methanone] | 0.201 to 2.5 µM
21 | O=C(c1cncc(-c2ccc(F)cc2)c1)N1CCc2ccccc21 [Compound 60, (5-(4-Fluorophenyl)pyridin-3-yl)(indolin-1-yl)methanone] | 0.201 to 2.5 µM
22 | Cn1nccc1-c1cncc(C(=O)N2CCOc3ccccc32)n1 [Compound 63, (2,3-Dihydro-4H-benzo[b][1,4]oxazin-4-yl)(6-(1-methyl-1H-pyrazol-5-yl)-pyrazin-2-yl)methanone] | 0.201 to 2.5 µM
23 | CC1CCc2ccccc2N1C(=O)c1cnnc(-c2ccc(F)cc2)c1 (stereo not shown) [Compound 64, (6-(4-Fluorophenyl)pyridazin-4-yl)(2-methyl-3,4-dihydroquinolin-1(2H)-yl)-methanone] | 0.201 to 2.5 µM
24 | COC(=O)c1ccc2c(c1)CCCN2C(=O)c1cncc(-c2ccccc2)c1 [Compound 67, Methyl 1-(5-phenylnicotinoyl)-1,2,3,4-tetrahydroquinoline-6-carboxylate] | 0.201 to 2.5 µM
25 | O=C(c1cncc(-c2cccnc2)c1)N1CCCc2ccccc21 [Compound 70, [3,3′-Bipyridin]-5-yl(3,4-dihydroquinolin-1(2H)-yl)methanone] | 0.201 to 2.5 µM
26 | Cn1cc(-c2cncc(C(=O)N3CCOc4ccccc43)c2)cn1 [Compound 73, (2,3-Dihydro-4H-benzo[b][1,4]oxazin-4-yl)(5-(1-methyl-1H-pyrazol-4-yl)-pyridin-3-yl)methanone] | 0.201 to 2.5 µM
27 | O=C(c1cncc(N2CCCC2)c1)N1CCOc2ccccc21 [Compound 74, (2,3-Dihydro-4H-benzo[b][1,4]oxazin-4-yl)(5-(pyrrolidin-1-yl)pyridin-3-yl)-methanone] | 0.201 to 2.5 µM
28 | O=C(c1cncc(N2CC(F)(F)C2)n1)N1CCOc2ccccc21 [Compound 77, (6-(3,3-Difluoroazetidin-1-yl)pyrazin-2-yl)(2,3-dihydro-4H-benzo[b][1,4]oxazin-4-yl)methanone] | 0.201 to 2.5 µM
29 | O=C(Cc1cncc(-c2ccc(F)cc2)c1)N1CCCc2ccccc21 [Compound 79, 1-(3,4-Dihydroquinolin-1(2H)-yl)-2-(5-(4-fluorophenyl)pyridin-3-yl)ethan-1-one] | 0.201 to 2.5 µM
30 | COc1ccc(-c2cncc(CC(=O)N3CCOc4ccccc43)c2)cc1 [Compound 80, 1-(2,3-Dihydro-4H-benzo[b][1,4]oxazin-4-yl)-2-(5-(4-methoxyphenyl)pyridin-3-yl)ethan-1-one] | 0.201 to 2.5 µM
31 | Cc1cnn(-c2cncc(C(=O)N3CCCc4ccccc43)n2)c1 [Compound 84, (3,4-Dihydroquinolin-1(2H)-yl)(6-(4-methyl-1H-pyrazol-1-yl)pyrazin-2-yl)-methanone] | < 0.05 µM
32 | O=C(c1cncc(Cc2ccccc2)n1)N1CCCc2ccccc21 [Compound 85, (6-Benzylpyrazin-2-yl)(3,4-dihydroquinolin-1(2H)-yl)methanone] | 0.201 to 2.5 µM
33 | O=C(Cc1cncc(-c2ccc(F)cc2)c1)N1CCOc2ccccc21 [Compound 86, 1-(2,3-Dihydro-4H-benzo[b][1,4]oxazin-4-yl)-2-(5-(4-fluorophenyl)pyridin-3-yl)ethan-1-one] | 0.201 to 2.5 µM
34 | Cc1cc(C)n(-c2cncc(C(=O)N3CCCc4ccccc43)n2)n1 [Compound 87, (3,4-Dihydroquinolin-1(2H)-yl)(6-(3,5-dimethyl-1H-pyrazol-1-yl)pyrazin-2-yl)-methanone] | 0.051 to 0.2 µM
